Results published in patent US12358919B2, “Antibacterial compounds” (Universita' degli Studi di Siena, priority 2019, dated 2025).

Tests used:
[1] = system: Escherichia coli CCUG^T; assay: microbe, parasite or virus in culture; type: cell-based; settings: Escherichia coli
Description: (§1) Growth inhibition or killing of bacteria was investigated using conventional methods widely described in the scientific literature. Parameters such as the Minimum Inhibitory Concentration (MIC) were determined as described in Clinical Laboratory Standard Institute (CLSI) document M07 “Methods for Dilution Antimicrobial Susceptibility Tests for Bacteria That Grow Aerobically, 11th Edition” (2018). Synergistic activity of the compounds described in the present specification were determined by measuring the variation of the MIC's compound in the absence and presence of a sub-inhibitory concentration of a suitable antibacterial agent, such as polymyxin E1. Furthermore, the Fractional Inhibitory Concentrations (FICs) were measured using a chequerboard analysis to determine the average FIC index (FICI), whose value is known to characterize the interaction between two compounds and/or drugs (≤0.5, synergistic interaction; >0.5 and <2, no interaction, additive effect; ≥2, antagonistic interaction). Furthermore, the selectivity of the compounds was investigated by measuring their cytotoxic effect on mammalian cell lines (e.g. HeLa cells).
(§2) Several methods were used to investigate the synergistic activity of the compounds, including (a) the determination of the MIC in the presence of a sub-inhibitory concentration of a suitable antibacterial agent, (b) the determination of the average FICI using a chequerboard analysis and (c) the time-kill curve analysis of a suitable agent (at a sub-inhibitory concentration) in the absence and presence of the pyrazolo[4,3-b]pyridin-6-carboxamide compound at a fixed concentration of 2 or 8 mg/L.
(§3) The MIC of the compound was determined alone and in the presence of a fixed and sub-inhibitory concentration of a suitable antibacterial agent of the polymyxin class, such as polymyxin E1 (colistin). The potentiation fold was computed as the ratio MICcompound/MICcompound+polymyxin E. Tested organisms included Escherichia coli CCUG^TKlebsiella pneumoniae ATCC 13833 and Acinetobacter baumannii ATCC 17978, which show a colistin MIC of 0.5, 0.5 and 1 mg/L, respectively.

[2] = system: Klebsiella pneumoniae ATCC 13833; assay: microbe, parasite or virus in culture; type: cell-based
Description: as §1, §2, §3

[3] = system: Acinetobacter baumannii ATCC 17978; assay: microbe, parasite or virus in culture; type: cell-based
Description: as §1, §2, §3

[4] = system: K. pneumoniae SI-27; assay: Chequerboard analysis with polymyxin E1 (average FIC index); type: cell-based, Klebsiella pneumoniae; settings: K. pneumoniae SI-27 (colistin-resistant); compound + polymyxin E1
[5] = system: K. pneumoniae SI-4B; assay: as above; type: cell-based, Klebsiella pneumoniae; settings: K. pneumoniae SI-4B (colistin-resistant); compound + polymyxin E1

Q: Which MIC [1] does the source give for `CCCCn1c(=O)c(C(=O)NC23CC4CC(CC(C4)C2)C3)c(O)c2nn(CCO)cc21` [Im, N-(Adamantan-1-yl)-4-(1-butyl)-4,5-dihydro-7-hydroxy-2-(2-hydroxyethyl)-5-oxo-2H-pyrazolo[4,3-b]pyridin-6-carboxamide] here?
A: Its MIC is over 512 µg/mL.

Q: What about the Potentiation fold ([2]; K. pneumoniae ATCC 13833, ratio MICcompound/MICcompound+polymyxin E) of the same compound?
A: The Potentiation fold was at least 64.

Q: And the “MIC in presence of colistin” value ([2]; K. pneumoniae ATCC 13833, with 0.25xMIC polymyxin E1 (0.12 mg/L))?
A: The value was 8 µg/mL.

Q: What about the MIC ([2]; Klebsiella pneumoniae, ATCC13833) of the same compound?
A: Its MIC is over 512 µg/mL.

Q: What about the Potentiation fold ([3]; A. baumannii ATCC 17978, ratio MICcompound/MICcompound+polymyxin E) of the same compound?
A: The Potentiation fold was at least 64.

Q: And the “MIC in presence of colistin” value ([3]; A. baumannii ATCC 17978, with 0.25xMIC polymyxin E1 (0.25 mg/L))?
A: The value was 8 µg/mL.

Q: And the MIC ([3]; Acinetobacter baumannii, ATCC17978)?
A: Its MIC is over 512 µg/mL.

Q: What about the “Average FIC index” value [4] of the same compound?
A: Its value is 0.41.

Q: And the “Average FIC index” value [5]?
A: Its value is 0.31.
